Test [1] has as its system alisertib-induced senescent A549, Hep1 and MM231 cells. In words: Colony formation with IgG1-cona or IgA-cona-dim DR5 agonist antibodies. As to conditions: side-by-side IgG1 and IgA-cona-dim forms of conatumumab. Format: cell-based. Here is the method:
(§1) FIG. 10: Colony formation in proliferating and alisertib-induced senescent A549 (A), Hep1 (B) and MM231 (C) cells with IgG1-cona or IgA-cona-dim DR5 agonist antibodies. Colony formation in proliferating and alisertib-induced senescent A549 cells treated with the low dose of 0.125 μg/ml IgA-cona-dim, 0.25 μM NEO2734 and 10 μM Z-VAD-FMK (D). Colony formation using low dose 0.25 μM of NEO2734 and 0.125 μg/ml IgA-cona-dim A549 cells made senescent by one-week treatment with 1 μM barasertib, 0.5 μM PF-06873600, 100 nM doxorubicin, 50 nM CFI-400945, 2 μM Etoposide or 1 μM TAS-119 (E).
Antibodies were generated by expression of SEQ 1 and SEQ 3 (IgG1-cona), SEQ 2 and SEQ 3 (IgA-cona), or SEQ 2, SEQ 3 and SEQ 4 (IgA-cona-dim) as described (Beyer et al., 2009. J Immunol Methods 346: 26-37), by employing the nucleotide sequences SEQ 5 and SEQ 6 (IgG1-cona), SEQ 6 and SEQ 7 (IgA-cona), or SEQ 6, SEQ 7 and SEQ 8 (IgA-cona-dim). SEQ 4 depicts a sequence of an immunoglobulin J chain, which links two or more IgA monomer units.

Test [2] relates to proliferating and senescent A549 cells. In words: Colony formation with low dose IgA-cona-dim, NEO2734 and Z-VAD-FMK. Format: cell-based. The conditions noted are these: 10 μM Z-VAD-FMK; alisertib-induced senescent A549. Here is the method: as §1

Residues, ends and D or L forms follow the SMILES beside them. *: point of attachment. Cbz = O=C(OCc1ccccc1)*; CH2F = FC*

On to “IgA-cona-dim: dimeric form of IgA-conatumumab, SEQ 2, SEQ 3 and SEQ 4 (J chain)”, for which the “senolytic potency compared with IgG form” value in test [1] was “most potent DR5 agonist to eliminate senescent cells”.

As to `COC(=O)C[C@H](NC(=O)[C@H](C)NC(=O)[C@@H](NC(=O)OCc1ccccc1)C(C)C)C(=O)CF` [Z-VAD-FMK] (Cbz-Val-Ala-Asp(OMe)-CH2F), the “rescue from IgA-cona-dim plus NEO2734 mediated senolysis” value in test [2] was “fully rescue the cells from senolysis”.

Source of the values: patent US20240382499A1, “INDUCERS OF SENESCENCE, IN COMBINATION WITH A SELECTIVE DEATH RECEPTOR 5 (DR5) AGONIST, FOR USE IN A METHOD OF TREATING CANCER” (Stichting Het Nederlands Kanker Instituut-Antoni van …, priority 2021, published 2024).
